Test results published in patent US7820642B2, “Nandrolone 17β-carbonates” (The United States of America as represented by the …, priority 2005, dated 2010).
“Also recorded” adds a separate entry of the source.

Tests used:
Type in all cases: in vivo, rat
[1] = Serum levels of dimethandrolone (CDB-1321) and immunoreactive metabolites by radioimmunoassay; parameters: AUC of serum concentration of dimethandrolone and immunoreactive metabolites: unit not given here; conditions: for AUC of serum concentration of dimethandrolone and immunoreactive metabolites: n=5, FIG. 9
Description: Serum levels of testosterone and CDB-1321 were determined as follows. Rats from a duration of androgenic activity study were exsanguinated at autopsy, serum prepared by allowing blood to clot at room temperature and the sample frozen for subsequent radioimmunoassay. A radioimmunoassay for the free alcohol, 7a, 11β-dimethyl-19-nortestosterone, was developed using antisera generated in rabbits against the 3-carboxymethyloxime-BSA conjugate and employing the corresponding histamine conjugate for iodination as tracer.

[2] = test system: luteinizing hormone (rLH); experiment: Serum rLH in castrate male rats; conditions: for Serum rLH after administration was discontinued / Serum rLH during administration: fourteen daily 12 mg/kg oral doses in 10% ethanol/sesame oil, days 0-13, FIG. 14; for Serum rLH up to 16 weeks post administration / Serum rLH after 16 weeks: single 12 mg/kg subcutaneous injection in aqueous suspending vehicle on day 0, FIG. 15; for Serum rLH after 16 weeks: monitored over 22 weeks
Description: FIG. 14 depicts the serum levels of rLH as a function of time for groups 2 and 4 of the animals. Serum rLH were measured in the blood from castrate male rats following fourteen daily 12 mg/kg oral doses of CDB-4719A (dimethandrolone 17β-decylcarbonate, filled circles, group 2) or CDB-4521C (dimethandrolone 17β-undecanoate, open triangles, group 4) in 10% ethanol/sesame oil on days 0-13. Samples from weeks −1 to 6 or from weeks 7 to 9 and repeats were assayed as described in the protocols MEL-480AD using [^125I]-rLH or MEL-480AE, AG using [^125I]-rLH. The limit of detection shown as dotted line, or EC90, was the mean of 0.13, 0.14, or 0.16 in the first assay and 0.17, 0.22, or 0.21 ng/ml in the second series of assays based on 200 μl of serum per tube.
FIG. 15 depicts the serum levels of rLH as a function of time for groups 1 and 3 of the animals. Serum rLH were measured in the blood from castrate male rats following a single 12 mg/kg subcutaneous injection of CDB-4719A (dimethandrolone 17β-decylcarbonate, filled circles, group 1) or CDB-4521C (dimethandrolone 17β-undecanoate, open triangles, group 3) in an aqueous suspending vehicle on day 0. Samples from weeks −1 to 6 or from weeks 7 to 22 and repeats were assayed as described in the protocols MEL-480AD using [^125I]-rLH or MEL-480AE, AG, AH using [^125I]-rLH. The limit of detection shown as dotted line, or EC90, was the mean of 0.13, 0.14, or 0.16 in the first assay and 0.17, 0.22, or 0.21 ng/ml in the second series of assays based on 200 μl of serum per tube.
Carbonates of the invention, in embodiments, can be used to suppress luteinizing hormone in a mammal for extended periods of time. […] CDB-4719A (dimethandrolone 17β-decylcarbonate) was administered to castrate male rats, daily at 12 mg/kg oral doses, and CDB-4521C (dimethandrolone 17β-undecanoate) was administered in 10% ethanol/sesame oil, on days 0-13. […] This observation could have advantageous clinical implications, for example, in obtaining sustained suppression of the luteinizing hormone or hormone replacement therapy. In addition, this could have an advantage by providing a facile treatment using oral compositions such as tablets or capsules of the carbonates of the invention in suppressing hormone levels. Such treatment can be advantageous relative to a treatment involving parenteral (e.g., subcutaneous) administration of a drug such as the ester drug. Patient compliance is better with oral formulations than injections.
FIG. 15 provides a comparison between CDB-4719A (dimethandrolone 17β-decylcarbonate) and CDB-4521C (dimethandrolone 17β-undecanoate). A single dose (12 mg/kg) of the compound was administered to castrate male rats by subcutaneous injection in an aqueous suspending vehicle on day 0. The serum rLH concentration was monitored over a 22-week period and beyond.

[3] = test system: castrate Sprague-Dawley male rats; experiment: Androgenic activity, Hershberger test (ventral prostate weight)
Description: The androgenic activity was tested as follows (see, Hershberger et al., Proc. Soc. Exptl. Biol. Med., 83: 175-180 (1953)). Immature (approximately 21 day old) male rats of the Sprague-Dawley strain were orchidectomized under METOFANE® anesthesia and randomly assigned to groups of ten animals for each dose level of test material and vehicle controls. Animals were maintained under standard conditions of housing and had free access to food and water. Illumination was controlled for 14-hour periods of light and 10 hours of darkness. Test compounds were dissolved in 10% ethanol/sesame oil and administered by gavage (oral) or subcutaneous injection daily for seven consecutive days starting on the day of surgery. Animals were sacrificed 24 hours after the last dose and the ventral prostate and seminal vesicles excised, cleaned of fat and connective tissue, blotted on moist filter paper and weighed to the nearest 0.1 mg. Ventral prostate weight was used as the endpoint because ventral prostate is the more sensitive organ to androgenic stimulation.
Statistical analysis was performed by conventional methods using a PROPHET data management system operating on SUN Microsystems OS 4.1.1 (see e.g., Bliss, Cl (1952) The Statistics of Bioassay, New York, Academic Press; Hollister, C (1988), Nucleic Acids Research, 16:1873-1875.
Each data point represents the mean (n=10) and standard error of the mean (SEM) prostate weight for each dose level. The potency ratio and 95% confidence index are set forth below.

[4] = test system: castrate Sprague-Dawley male rats; experiment: Duration of androgenic activity after a single subcutaneous injection (ventral prostate weight, AUC); conditions: for Duration of androgenic activity (in words): single subcutaneous injection in aqueous vehicle; for AUC of ventral prostate weight (duration of androgenic activity): 14 weeks
Description: Duration of androgenic activity was determined as follows. Immature (22 days of age) male rats of the Sprague-Dawley CD strain were orchidectomized under METOFANE anesthesia and randomly assigned to groups of forty or more animals. Animals were maintained under standard conditions of housing and had free access to food and water. Illumination was controlled for 14-hour periods of light and 10 hours of darkness. Animals received a single subcutaneous injection of 0.6 mg of test material in aqueous suspending vehicle (ASV) and/or an oily vehicle (10% ethanol/sesame oil, sesame oil containing 5 mg/ml chlorobutanol as a preservative or ethyl oleate) on the day of surgery. Controls received vehicle alone. Testosterone enanthate in sesame oil was used as a standard. In cases where the test material was not solid at room temperature, i.e., a wax or oil, 10% ethanol/sesame oil or ethyl oleate was used as a vehicle. Five rats from each group were sacrificed at weekly or biweekly intervals and seminal vesicle and ventral prostate glands were excised, cleaned of adherent fat and connective tissue and weighed to the nearest 0.1 mg. Ventral prostate weight was used as the endpoint because it is the more sensitive organ to androgenic stimulation. Area under the curve (AUC) was calculated by the trapezoidal rule.
Each data point represents the mean (n=5) and standard error of the mean (SEM) prostate weight for each time period. […] In FIG. 8, the data for 1.2 mg dose groups are shown together with historical data for testosterone undecanoate in aqueous suspension and testosterone enanthate in sesame oil as standards. Both testosterone undecanoate and testosterone enanthate are commercially available.

[5] = single subcutaneous injection of 0.6 mg in aqueous suspending vehicle
[6] = single subcutaneous injection of 1.2 mg in aqueous suspending vehicle
[7] = oral, daily for 7 days in 10% ethanol/sesame oil, CDB 110 (methyltestosterone) = 1.000 assigned, FIG. 5, ranges did not pass all significance tests
[8] = subcutaneous injection, daily for 7 days, CBD-111 (testosterone) = 1.000 assigned, FIG. 6, footnote 2 values did not pass all significance tests
[9] = 1.2 mg, 14-week observation period

Row | SMILES | Serum rLH after administration was discontinued [2] | Serum rLH during administration [2] | Serum rLH up to 16 weeks post administration [2] | Serum rLH after 16 weeks [2] | AUC of serum concentration of dimethandrolone and immunoreactive metabolites [1, 5] | AUC of serum concentration of dimethandrolone and immunoreactive metabolites [1, 6] | Androgenic activity Potency Ratio [3, 7] | Androgenic activity Potency Ratio [3, 8] | Duration of androgenic activity (in words) [4] | AUC of ventral prostate weight (duration of androgenic activity) [4, 5] | AUC of ventral prostate weight (duration of androgenic activity) [4, 6] | also measured
1 | C[C@@H]1CC2=CC(=O)CC[C@@H]2[C@@H]2[C@@H]1[C@@H]1CC[C@H](O)[C@@]1(C)C[C@@H]2C [CDB-1321, 7a, 11β-dimethyl-19-nortestosterone, reference compound] |  |  |  |  |  |  |  |  |  |  |  | Serum levels of the free alcohol after giving the free alcohol itself ([1]; first 3 weeks, limit of detection 63 pg/ml): barely above the limit of detection
2 | CCCCCCCCCCC(=O)O[C@H]1CC[C@H]2[C@H]3[C@H]([C@@H](C)C[C@]12C)[C@H]1CCC(=O)C=C1C[C@H]3C [CDB-4521C, dimethandrolone 17β-undecanoate, reference compound] | bounced back and increased beyond the pretreatment level | remained suppressed | remains suppressed | rose after 16 weeks |  |  |  |  |  |  |  | 
3 | COC(=O)O[C@H]1CC[C@H]2[C@H]3[C@H]([C@@H](C)C[C@]12C)[C@H]1CCC(=O)C=C1C[C@H]3C [CDB-4718, 17β-Methoxycarbonyloxy-7α,11β-dimethylestr-4-en-3-one] |  |  |  |  | 2848 | 3336 | about two and one-half times | 10.4-47.5 | short duration of action | 581 mg·week | 789 mg·week | Androgenic activity Potency Ratio ([3]; oral, daily for 7 days in 10% ethanol/sesame oil, CDB 110 (methyltestosterone) = 1.000 assigned, FIG. 5, ranges did not pass all significance tests, listed as 4718): 2.609^1; Androgenic activity Potency Ratio ([3]; subcutaneous injection, daily for 7 days, CBD-111 (testosterone) = 1.000 assigned, FIG. 6, footnote 2 values did not pass all significance tests, listed as 4718): 10.4-47.5^1,2
4 | CCCCCCCCCCOC(=O)O[C@H]1CC[C@H]2[C@H]3[C@H]([C@@H](C)C[C@]12C)[C@H]1CCC(=O)C=C1C[C@H]3C [CDB-4719, 17β-Decyloxycarbonyloxy-7α,11β-dimethylestr-4-en-3-one] | remained suppressed for several weeks | remained suppressed | remains suppressed | remained suppressed even at week 22 | 4151 | 6010 | five to nine times | no more potent than testosterone standard | far more potent than testosterone; also recorded: most dramatic increase and maintenance of ventral prostate weight | 1417 mg·week | 2764 mg·week | Androgenic activity Potency Ratio ([3]; oral, daily for 7 days in 10% ethanol/sesame oil, CDB 110 (methyltestosterone) = 1.000 assigned, FIG. 5, ranges did not pass all significance tests, listed as 4719): 5.486-8.992^1,2; Androgenic activity Potency Ratio, 4718 vs. 4719 ([3]; oral, direct comparison of CDB-4718 and CDB-4719): 3.016; Androgenic activity Potency Ratio ([3]; subcutaneous injection, daily for 7 days, CBD-111 (testosterone) = 1.000 assigned, FIG. 6, footnote 2 values did not pass all significance tests, listed as 4719): 0.64; AUC relative to testosterone enanthate in sesame oil [4, 9]: more than three times greater; AUC relative to testosterone undecanoate [4, 9]: more than five times greater
5 | CCCCCCCCCCCCOC(=O)O[C@H]1CC[C@H]2[C@H]3[C@H]([C@@H](C)C[C@]12C)[C@H]1CCC(=O)C=C1C[C@H]3C [CDB-4730, 17β-Dodecyloxycarbonyloxy-7α,11β-dimethylestr-4-en-3-one] |  |  |  |  |  |  | 0.97-3.82 | 0.05^1,2 | far more potent; also recorded: exhibited similar long-acting activity |  |  | Serum levels of dimethandrolone and immunoreactive metabolites over time ([1]; single subcutaneous dose of 0.6 or 1.2 mg per rat in aqueous suspending vehicle, FIG. 16): decreased with time as expected; Androgenic activity Potency Ratio ([3]; oral, daily for 7 days in 10% ethanol/sesame oil, CDB 110 (methyltestosterone) = 1.000 assigned, FIG. 5, ranges did not pass all significance tests, listed as 4730): 0.97-3.82^1,2; Potency as percent of the subcutaneous standard, testosterone ([3]; subcutaneous injection): 5%
